Laboratory results: patent EP0112419A1, “Pharmacologically active naphthotriazole derivatives” (BEECHAM GROUP PLC, priority 1982, dated 1984)

Tested on: rat passive peritoneal anaphylaxis
Test: Rat passive peritoneal anaphylaxis (PPA)
Format: in vivo
Conditions: for Concentration in peritoneal fluid as % of mean of controls (Mean ± SEM, 5-7 rats per group) Dye: Pontamine Sky Blue, OD at 625 nm; for Concentration in peritoneal fluid as % of mean of controls (Mean ± SEM, 5-7 rats per group) Histamine: fluid collected 5 min after challenge
From the text: • a) inhibit rat passive peritoneal anaphylaxis; and • b) antagonise the spasmogenic effects of slow reacting substance of anaphylaxis, SRS-A, on isolated guinea pig ileum.
Charles River Sprague Dawley male rats of 250 - 300 g. and Dunkin Hartley male white guinea pigs of 250 - 300 g. were used. v
The method has been described previously. (Ross, Janet W., Smith, H. and Spicer, Barbara A. Increased vascular permeability during passive peritoneal anaphylaxis in the rat. Int. Arch. Allergy appl. Immun., 51, 226, 1976).
Rats were sensitised by giving an intraperitoneal injection of 0.5 ml of Bordetella pertussis vaccine (4 x 10^10 organisms/ml Burroughs Wellcome, London) and a subcutaneous injection of 0.5 ml of an emulsion of 100 mg of ovalbumin (chicken egg albumin, crystallised and lyophilised, grade 3, Sigma, London) in 2 ml of isotonic saline and 3 ml of Freund's incomplete adjuvant (Difco Laboratories, Michigan, USA) .
The rats were bled by cardiac puncture, on day 18, the blood was pooled, and the serum separated, stored at -20°C and thawed only once before use.
Rats were each given an intraperitoneal injection of 2 ml of a 1:5 dilution of the rat anti-serum in isotonic saline. Two hours later 0.3 ml of a 5% solution of Pontamine Sky Blue (Raymond A. Lamb, London) in isotonic saline was injected intravenously, followed by an intraperitoneal injection of the test compound in 1 ml of saline; (control rats received 1 ml of saline); followed 30 seconds later by an intraperitoneal injection of 5 ml of Tyrode's solution containing […]/ml heparin and 0.4 mg/ml of ovalbumin. The concentrations of the compounds were quoted as those in the 6 ml of fluid injected intraperitoneally. Exactly five minutes after challenge the rats were stunned and bled and their peritoneal fluids were collected by,opening their peritoneal cavities over funnels into polycarbonate tubes in ice. The supernatants were separated from the cellular residue by centrifuging at 150 g. for five minutes and were retained for assay of dye and histamine. Any samples obviously contaminated with blood were not used for estimation of dye. Groups of at least five rats were used for each dose of compound and the treatments were randomised.
Dye was assayed within two hours by measurement of optical density (OD) at 625 nm.
For histamine assay 0.5 ml samples of the supernatants were added to 1 ml volumes of 12% trichloracetic acid and stored at -20°C. The deproteinised samples were assayed using an automated spectrofluorimetric system (Technicon Autoanalyser) by a method similar to that of Evans, D.P., Lewis, J.A. and Thomson, D.S.: (An automated fluorimetric assay for the rapid determination of histamine in biological fluids. Life Sci., 12, 327, 1973).

[1] = conc. injected i.p. 2 x 10^-5 M
[2] = conc. injected i.p. 2 x 10^-6 M
[3] = conc. injected i.p. 2 x 10^-7 M
[4] = conc. injected i.p. 2 x 10^-8 M

Structure (SMILES)	Concentration in peritoneal fluid as % of mean of controls (Mean ± SEM, 5-7 rats per group) Dye [1]	Concentration in peritoneal fluid as % of mean of controls (Mean ± SEM, 5-7 rats per group) Histamine [1]	Concentration in peritoneal fluid as % of mean of controls (Mean ± SEM, 5-7 rats per group) Dye [2]	Concentration in peritoneal fluid as % of mean of controls (Mean ± SEM, 5-7 rats per group) Histamine [2]	Concentration in peritoneal fluid as % of mean of controls (Mean ± SEM, 5-7 rats per group) Dye [3]	Concentration in peritoneal fluid as % of mean of controls (Mean ± SEM, 5-7 rats per group) Histamine [3]	Concentration in peritoneal fluid as % of mean of controls (Mean ± SEM, 5-7 rats per group) Dye [4]	Concentration in peritoneal fluid as % of mean of controls (Mean ± SEM, 5-7 rats per group) Histamine [4]
CCCc1c(OCCCOc2ccc3c(c2)C(=O)c2nn[nH]c2C3=O)ccc(C(C)=O)c1O [Example 1 and 2, 6-[3-(4-Acetyl-3-hydroxy-2-n-propylphenoxy)propoxy]-4,9-dihydro-4,9-dioxo-1H-naphtho[2,3-d]-v-triazole]	32 ± 5%	10 ± 1%	58 ± 8%	27 ± 8%	63 ± 5%	57 ± 11%		
CCCc1c(OCCCOc2cccc3c2C(=O)c2nn[nH]c2C3=O)ccc(C(C)=O)c1O [Example 3, 5-[3-(4-Acetyl-3-hydroxy-2-n-propylphenoxy)-pro^poxy]-4,9-dihydro-4,9-dioxo-1H-naphtho[2,3-d]-v-triazole]	57 ± 4%	25 ± 3%	94 ± 8%	62 ± 11%				
CCCc1c(OCC(O)COc2ccc3c(c2)C(=O)c2nn[nH]c2C3=O)ccc(C(C)=O)c1O (centres unmarked) [Example 4, 6-[3-(4-Acetyl-3-hydroxy-2-n-propylphenoxy)-2-hydroxy-pronoxy]-4,9-dihydro-4,9-dioxo-1H-naphtho[2,3-d]-v-triazole]					58 ± 4%	38 ± 4%	72 ± 11%	64 ± 11%
